Each structure is given as a SMILES string.

The record followed here is patent US20220017833A1, “Methods and Compositions for Scavenging Sulfides from Hydrocarbon Fluids and Aqueous Streams” (Nexgen Oilfield Chemicals, LLC, priority 2019, published 2022).

Test [1] in a line: Short Reaction Time Capacity Test. To be noted: 20 g test; for Min to BT / Min to FD: 3.00 g BuOH, GIDA 6.68 g as GID, 3.32 g water. From the text:
(§1) Referring now to FIG. 1, therein is schematically depicted a sulfide scavenger testing system 100 comprising a gas source 2, a flow regulator 4, gas treatment vessel 6, and a sulfide measurement device 8. In one testing embodiment, gas (not shown) is flowed from gas source 2 via gas feed piping 10 into flow regulator 4, which regulates gas flow to gas treatment vessel 6 via regulated gas feed piping 12. The regulated gas flows into gas treatment vessel 6 via a bottom inlet 14 thereof, where it comes into contact with a volume of liquid 16 comprising a sulfide scavenger system (not separately labeled). The gas, having been treated by the liquid, flows out of a top end 18 of gas treatment vessel 6 and flows into sulfide measurement device 8 via treated gas outlet piping 20.
In one embodiment, gas flow from the flow regulator 4 is controlled such that the gas is flowed into the gas treatment vessel 6 at a flow rate of 100 mL/min. up to 500 mL/min. In one embodiment, a gas sparging device, such as a fine pore frit (not shown), is utilized to better distribute the gas into the scavenger liquid. In one embodiment, the gas treatment vessel 6 contains about 20 g of a liquid H2S scavenger, such as one or more diaminols/diaminacetals in a chemical system as described above. In one aspect, to the extent possible, H2S and/or CO2 are scavenged from the gas by the scavenger and the treated (“sweet”) gas exits top end 18 of treatment vessel 6. In one embodiment, sulfide measurement device 8 monitors the concentration of H2S leaving treatment vessel 6. in the gas phase. In other embodiments (not shown), a CO2 measurement device may be similarly employed to monitor the concentration of CO2 leaving treatment vessel 6 in the gas phase.
(§2) In one embodiment, gas is flowed through sulfide scavenger testing system 100 until the outlet H2S concentration reaches a 4,000 ppm target, at which point the test is concluded. This relative time duration before the target is reached is used to compare H2S scavenger capacity given the kinetics of each sulfide scavenger system. The longer the duration, the better the capacity.
(§3) The fine bubbles produced rise slowly, providing plenty of time, plenty of surface area, and a short path through which the H2S must diffuse to the scavenger in the liquid 16. Detector 8 on the outlet line 20 is used to measure H2S concentration in the exiting gas. The times to first detection (FD), at a threshold of 15 ppm, and to complete breakthrough (BT), at the detector saturation of 4000 ppm (0.4%), are recorded. This test is designed to measure the effective scavenging capacity in applications with long contact times.
This test is the same as the Long Reaction Time Capacity Test, but without the gas sparging device, so as to produce larger bubbles, and at a higher feed rate of 200 mL/min, after the first 8 minutes at 100 mL/min. The larger bubbles rise quickly through the liquid 16, providing little time, little surface area, and a long path through which the H2S must diffuse to the scavenger in the liquid. This test is designed to measure the effective scavenging capacity in applications with short contact times. It is far more reaction rate dependent than the Long Reaction Time Capacity and so is a more critical and differentiating test.
With triazine, one H2S reacts twice with the same molecule of triazine, replacing one amine, so the rate is “first order”, meaning proportional to the concentration of triazine.

The nature of test [2]: operational testing in a natural gas production facility. The method, then:
In operational testing in a natural gas production facility, both an anhydrous glyoxy isopropyl aminacetal (GIDAc) scavenging system and an aqueous glyoxy isopropyl diaminol (GIDA) scavenging system were tested in comparison with an industry standard triazine-based scavenger.

Test [3] is described as follows: Long Reaction Time Capacity Test. To be noted: 20 g test.
Text: as §1
In one embodiment, the gas contained in gas source 2 consists substantially of about 15% H2S, and about 3% CO2, with the remainder being Methane. In one embodiment, gas flow from the flow regulator 4 is controlled such that the gas is flowed into the gas treatment vessel 6 at a flow rate of 100 mL/min. up to 500 mL/min. In one embodiment, a gas sparging device, such as a fine pore frit (not shown), is utilized to better distribute the gas into the scavenger liquid. In one embodiment, the gas treatment vessel 6 contains about 20 g of a liquid H2S scavenger, such as one or more diaminols/diaminacetals in a chemical system as described above. In one aspect, to the extent possible, H2S and/or CO2 are scavenged from the gas by the scavenger and the treated (“sweet”) gas exits top end 18 of treatment vessel 6. In one embodiment, sulfide measurement device 8 monitors the concentration of H2S leaving treatment vessel 6. in the gas phase. In other embodiments (not shown), a CO2 measurement device may be similarly employed to monitor the concentration of CO2 leaving treatment vessel 6 in the gas phase.
as §2
as §3, with “In this test, methane containing 15% H2S and 3% CO2 by weight is sparged via a fine pore frit (not shown) at 100 mL/min through a column of 20 g of scavenger solution (See FIG. 1). The fine” for “The fine”
Note that the true total capacity of a scavenger with infinite time to react is simply equal to the stoichiometry of the reaction—the moles of H2S consumable per mole of scavenging molecule, which can be calculated. This Long Reaction Time Capacity measurement falls short of that ultimate stoichiometric capacity and so is still reaction rate dependent, just less so than the Short Reaction Time Capacity Test.

Setting [4] is: Eq/test GIDAc 0.114, GIDA 0.076 (8.00 g MeOH, 2.00 g BuOH).
Where [5] appears, read: Eq/test Triazine 0.068, GIDAc 0.157, GIDA 0.076 (7.50 g MeOH, 2.50 g BuOH).
The mark [6] stands for this setting: GIDAc 8.00 g as GID, 9.00 g MeOH, 8.00 g MeOH, 2.00 g BuOH.
Setting [7] is: Triazine 7.50 g + 12.50 g water, GIDAc 11.00 g as GID, 6.00 g MeOH, 7.50 g MeOH, 2.50 g BuOH.
Setting [8] is: Eq/test Triazine 0.068, GIDAc 0.185, GIDA 0.076.
The mark [9] stands for this setting: Triazine 7.50 g + 12.50 g water, GIDAc 13.00 g as GID + 7.00 g MeOH, GIDA 6.68 g as GID, 3.32 g water, 8.00 g MeOH, 2.00 g BuOH.

As for `CC(C)NC(O)C(O)NC(C)C` (centres unmarked) [GIDA, 1,2-bis[(propan-2-yl)amino]ethane-1,2-diol], the “Min/Eq BT” value in test [1] (setting [4]) is 607 Min/Eq; in test [1] (setting [5]), 541 Min/Eq; in test [3] (setting [8]) it was 805 Min/Eq. Further, the “Min/Eq FD” value was determined as 515 Min/Eq in test [1] (setting [4]), 462 Min/Eq in test [1] (setting [5]) and 607 Min/Eq in test [3] (setting [8]). The “Min to BT” value came out at 46 min in test [1] (setting [6]), 41 min in test [1] (setting [7]) and 61 min in test [3] (setting [9]). Further, the “Min to FD” value worked out at 39 min in test [1] (setting [6]), 35 min in test [1] (setting [7]) and 46 min in test [3] (setting [9]). For the same compound, the “H2S removal on a pound-per-pound basis” value in test [2] (compared with the triazine-based scavenging system) is recorded as “significantly higher H2S removal”. The “employable in scavenging H2S from natural gas” value in test [2] (natural gas production facility) is on record as “employable”.
